In US20040248919A1, “Fluorinated trienes and their use as rxr modulators” (priority 2001, published 2004):
pIC50: −log10 of the molar value. Read-outs that look alike come from different tables or passages of the source.

Molecular target: T1, RXRα:RXRα homodimer (Homo sapiens, UniProt P19793)
T1 sequence (P19793 1-462): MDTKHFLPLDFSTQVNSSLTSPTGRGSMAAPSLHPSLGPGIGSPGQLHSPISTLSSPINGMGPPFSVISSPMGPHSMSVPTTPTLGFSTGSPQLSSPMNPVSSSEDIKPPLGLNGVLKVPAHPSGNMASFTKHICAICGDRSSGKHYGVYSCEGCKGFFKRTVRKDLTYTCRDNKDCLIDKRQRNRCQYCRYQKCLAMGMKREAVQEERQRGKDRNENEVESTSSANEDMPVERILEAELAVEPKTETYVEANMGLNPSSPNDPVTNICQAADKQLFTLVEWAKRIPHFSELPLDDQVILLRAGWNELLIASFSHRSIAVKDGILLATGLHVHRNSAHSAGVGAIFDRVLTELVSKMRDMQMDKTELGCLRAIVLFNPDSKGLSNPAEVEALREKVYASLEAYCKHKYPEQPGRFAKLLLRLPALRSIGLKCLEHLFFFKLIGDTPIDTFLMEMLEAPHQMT
Test: RXR homodimer co-transfection assay (antagonist) in CV-1 cells
Assay type: cell-based
Settings: for pIC50: in the presence of 3.2×10^−8 M LGD1069, read-out: RXR Antagonist CTF IC50
Description: In the co-transfection assay, cloned cDNA for one or more IRs (e.g. human RARα, RXRα, or PPARγ), alone or in combination (i.e. for heterodimer assays) under the control of a constitutive promoter (e.g., the SV 40, RSV or CMV promoter) is introduced by transfection (a procedure to introduce exogenous genes into cells) into a background cell substantially devoid of endogenous IRs. These introduced gene(s) direct the recipient cells to make the IR protein(s) of interest. A further gene is also introduced (co-transfected) into the same cells in conjunction with the IR gene(s). This further gene, comprising the cDNA for a reporter protein, such as firefly luciferase (LUC), controlled by an appropriate hormone responsive promoter containing a hormone response element (HRE). This reporter plasmid functions as a reporter for the transcriptional-modulating activity of the target IR(s). Thus, the reporter acts as a surrogate for the products (mRNA then protein) normally expressed by a gene under control of the target receptor(s) and their native hormone(s). The co-transfection assay can detect small molecule agonists or antagonists, including partial agonists and antagonist, of target IRs. Exposing the transfected cells to an agonist ligand compound increases reporter activity in the transfected cells. This activity can be conveniently measured, e.g., by increasing luciferase production and enzymatic activity, which reflects compound-dependent, IR-mediated increases in reporter transcription. […] Increasing concentrations of an antagonist will decrease the reporter signal (e.g., luciferase production). The co-transfection assay is therefore useful to detect both agonists and antagonists of specific IRs. Furthermore, it determines not only whether a compound interacts with a particular IR, but whether this interaction mimics (agonizes) or blocks (antagonizes) the effects of native or synthetic regulatory molecules on target gene expression, as well as the specificity and strength of this interaction. […] To determine agonist and antagonist activity of the modulator compounds of the present invention, the CV-1 cells were transiently transfected by calcium phosphate coprecipitation according to the procedure of Berger et al., 41 J. Steroid Biochem. Mol. Biol., 733 (1992) with the receptor expressing plasmid […] et al., 345 Nature, 224 (1990), the disclosures of which are herein incorporated by reference at a concentration of 10 ng/well. The receptor expression plasmid was cotransfected along with a reporter plasmid at 50 ng/well, the internal control plasmid pRS-β-Gal at 50 ng/well and filler DNA, pGEM, at 90 ng/well. The reporter plasmid […], which contains an RXRE (retinoid X receptor response element, as described in Mangelsdorf et al., 66 Cell, 555 (1991), the disclosure of which is herein incorporated by reference, was used in transfections for the RXR homodimer assay. This reporter plasmid contains the cDNA for firefly luciferase (LUC) under the control of a promoter containing the RXR response element. As noted above, pRS-β-Gal, coding for constitutive expression of E. coli β-galactosidase (β-Gal), was included as an internal control for evaluation of transfection efficiency and compound toxicity. Six hours after transfection, media was removed and the cells were washed with phosphate-buffered saline (PBS). Media containing compounds of the present invention in concentrations ranging from 10^-10 to 10^-5 M were added to the cells. […] Ligand Pharmaceuticals, Inc.), compounds with known agonist activity on RXRs, were added at similar concentrations to provide a reference point for analysis of the agonist activity of the compounds of the present invention. […] Ligand Pharmaceuticals, Inc.). Retinoid purity was established as greater than 99% by reverse phase high-performance liquid chromatography. Retinoids were dissolved in dimethylsulfoxide for use in the transcriptional activation assays. Two to three replicates were used for each sample. […]

[1] = CV-1 cells, antagonist efficacy as % of maximal inhibition, read-out: RXR Antagonist CTF % Efficacy

Compound | Emax [1] [%] | pIC50 (CV-1 cells) | Emax (CV-1, read-out: RXR Antagonist CTF % Efficacy) [%]
C/C(=C/C=C(F)/C(C)=C/C(=O)O)c1cc(C(C)(C)C)cc(C(C)(C)C)c1OCC(F)F [Example 1, 7-[3,5-di-tert-butyl-2-(2,2-difluoroethoxy)-phenyl]4-fluoro-3-methyl-octa-2,4,6-trienoic acid] | 100 | 5.31 | 
C/C(=C/C(F)=C/C(C)=C/C(=O)O)c1cc(C(C)(C)C)cc(C(C)(C)C)c1OCC(F)F [Example 2, 7-[3,5-Di-tert-butyl-2-(2,2-difluoroethoxy)-phenyl]-5-fluoro-3-methyl-octa-2,4,6-trienoic acid] | 100 | 5.06 | 
CCCCOc1c(\C(C)=C/C=C/C(=C/C(=O)O)C(F)(F)F)cc(C(C)C)cc1C(C)C [Example 3, (2Z,4E,6Z)-7-(2-Butoxy-3,5-diisopropylphenyl)-3-trifluoromethyl-octa-2,4,6-trienoic acid] | 83 | 6.04 | 
CCCCOc1c(\C(C)=C/C=C/C(=C\C(=O)O)C(F)(F)F)cc(C(C)C)cc1C(C)C [Example 4, (2E,4E,6Z)-7-(2-Butoxy-3,5-diisopropylphenyl)-3-trifluoromethyl-octa-2,4,6-trienoic acid] | 29 |  | 
CCOc1c(\C(=C/C=C/C(C)=C/C(=O)O)C(F)(F)F)cc(C(C)(C)C)cc1C(C)(C)C [Example 5, (2E,4E,6E)-3-methyl-7-(2-ethoxy-3,5-di-tert-butylphenyl)-8,8,8-trifluoroocta-2,4,6-trienoic acid] |  | 7.42 | 30
